Results from ChEMBL document CHEMBL3593185, “Synthesis of new fluorinated analogs of GABA, Pregabalin bioisosteres, and their effects on [(3)H]GABA uptake by rat brain nerve terminals” (Bioorg Med Chem, 2015).
Active and inactive are the calls of the source. The calls are words filed in the database; no cut-off is given here.

Legend:
Assay type in all cases: functional, subcellular
[1] = species: Rattus norvegicus; assay: Increase in [3H]GABA uptake initial velocity in Wistar rat synaptosomes measured per mg of protein pretreated at 200 uM for 20 mins by scintillation counting
[2] = species: Rattus norvegicus; assay: Increase in [3H]GABA uptake initial velocity in Wistar rat synaptosomes measured per mg of protein pretreated at 100 uM for 20 mins by scintillation counting (reference value: 153 +/- 7.7 pmol/min*mg of protein)
[3] = species: Rattus norvegicus; assay: Increase in [3H]GABA uptake initial velocity in Wistar rat synaptosomes measured per mg of protein pretreated at 100 uM for 20 mins with combined application of 50 uM SNAP5114 GAT3 blocker by scintillation counting
[4] = species: Rattus norvegicus; assay: Increase in [3H]GABA uptake initial velocity in Wistar rat synaptosomes measured per mg of protein at 200 uM by scintillation counting
[5] = species: Rattus norvegicus; assay: Increase in [3H]GABA uptake initial velocity in Wistar rat synaptosomes measured per mg of protein at 100 uM by scintillation counting (reference value: 205.4 +/- 5 pmol/min*mg of protein)
[6] = species: Rattus norvegicus; assay: Increase in [3H]GABA uptake initial velocity in Wistar rat synaptosomes measured per mg of protein pretreated at 100 uM for 20 mins with combined application of 30 uM NO-711 GAT1 blocker by scintillation counting

NCC(CC(=O)O)C(F)(F)C(F)F (racemic)
Activity [1]: Active
Activity [2]: 188 pmol/min/mg
Activity [3]: 125 pmol/min/mg
Activity [4]: inactive
Activity [5]: 198 pmol/min/mg
Activity [6]: 27.4 pmol/min/mg

NC[C@@](O)(CC(=O)O)C(F)(F)F
Activity [1]: Active
Activity [2]: 189 pmol/min/mg
Activity [3]: 128 pmol/min/mg
Activity [4]: inactive
Activity [5]: 194 pmol/min/mg
Activity [6]: 27.9 pmol/min/mg

CC(C)C[C@H](CN)CC(=O)O
Activity [2]: 182 pmol/min/mg
Activity [5]: 211 pmol/min/mg
Activity [6]: inactive

NC[C@@H](CC(=O)O)C(F)(F)F
Activity [1]: Active
Activity [2]: 179 pmol/min/mg
Activity [3]: 120 pmol/min/mg
Activity [4]: inactive
Activity [5]: 211 pmol/min/mg
Activity [6]: 23.7 pmol/min/mg
